Like-named read-outs stand apart in the source and are kept apart here.
Tests used:
Experiment in all cases: Test B pre-/postemergence plant response
Format in all cases: in vivo
soybean (Glycine max) = settings: for plant injury at 31 g/ha / plant injury at 62 g/ha: Glycine max, read-out: Plant response rating, Soybean; for plant injury at 31 g/ha: 31 g ai/ha; for plant injury at 62 g/ha: 62 g ai/ha, 100 complete control
Outline: (§1)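 Preemergence and postemergence (plants 2-18 cm, 1- to 4-leaf stage) applications used test chemicals in a non-phytotoxic solvent with surfactant. Plants were held in a greenhouse 13 to 15 days, then rated visually against controls on a 0-100 scale (0 no effect, 100 complete control).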

[1] = tested on: wheat (Triticum aestivum); settings: for plant injury at 31 g/ha / plant injury at 62 g/ha: Triticum aestivum, read-out: Plant response rating, Wheat; for plant injury at 31 g/ha: 31 g ai/ha; for plant injury at 62 g/ha: 62 g ai/ha, 100 complete control
Outline: as §1

corn (Zea mays) = settings: for Corn plant response rating (crop injury, 0 = no effect, 100 = complete kill) at 31 g/ha: 31 g ai/ha; for Corn plant response rating (crop injury, 0 = no effect, 100 = complete kill) at 62 g/ha: 62 g ai/ha, 100 complete control
Outline: as §1

[2] = tested on: morningglory (Ipomoea coccinea); settings: for pest or weed control at 31 g/ha / pest or weed control at 62 g/ha: Ipomoea, read-out: Plant response rating, Morningglory; for pest or weed control at 31 g/ha: 31 g ai/ha; for pest or weed control at 62 g/ha: 62 g ai/ha, 100 complete control
Outline: as §1

[3] = tested on: catchweed bedstraw (Galium aparine); settings: Preemergence
Outline: as §1

[4] = tested on: surinam grass (Brachiaria decumbens); settings: for pest or weed control at 31 g/ha / pest or weed control at 62 g/ha: Urochloa decumbens, read-out: Plant response rating, Surinam Grass; for pest or weed control at 31 g/ha: 31 g ai/ha; for pest or weed control at 62 g/ha: 62 g ai/ha, 100 complete control
Outline: as §1

[5] = tested on: yellow nutsedge (Cyperus esculentus); settings: for pest or weed control at 31 g/ha / pest or weed control at 62 g/ha: Cyperus, read-out: Plant response rating, Nutsedge, Yellow; for pest or weed control at 31 g/ha: 31 g ai/ha; for pest or weed control at 62 g/ha: 62 g ai/ha, 100 complete control
Outline: as §1

[6] = tested on: downy bromegrass (Bromus tectorum); settings: for pest or weed control at 31 g/ha: 31 g ai/ha; for pest or weed control at 62 g/ha: 62 g ai/ha, 100 complete control
Outline: as §1

[7] = tested on: bermudagrass (Cynodon dactylon); settings: for pest or weed control at 31 g/ha: 31 g ai/ha; for pest or weed control at 62 g/ha: 62 g ai/ha, 100 complete control
Outline: as §1

[8] = tested on: lambsquarters (Chenopodium album); settings: for pest or weed control at 31 g/ha / pest or weed control at 62 g/ha: Chenopodium album, read-out: Plant response rating, Lambsquarters; for pest or weed control at 31 g/ha: 31 g ai/ha; for pest or weed control at 62 g/ha: 62 g ai/ha, 100 complete control
Outline: as §1

[9] = tested on: Russian thistle (Salsola iberica); settings: Preemergence
Outline: as §1

[10] = tested on: blackgrass (Alopecurus myosuroides); settings: for pest or weed control at 31 g/ha: 31 g ai/ha; for pest or weed control at 62 g/ha: 62 g ai/ha, 100 complete control
Outline: as §1

[11] = tested on: cocklebur (Xanthium strumarium); settings: for pest or weed control at 31 g/ha: 31 g ai/ha; for pest or weed control at 62 g/ha: 62 g ai/ha, 100 complete control
Outline: as §1

[12] = 8 g ai/ha, postemergence, 0-100 scale
[13] = 16 g ai/ha, postemergence, 0-100 scale
[14] = post-emergence, Postemergence, scale 0 to 100
[15] = post-emergence, Postemergence, scale 0 to 100, 0 no effect
[16] = pre-emergence, Preemergence, scale 0 to 100 (0 no effect, 100 complete control)
[17] = pre-emergence, Preemergence, 0 to 100 scale, 0 no effect
[18] = Preemergence, 8 g ai/ha, scale 0 to 100 (0 no effect, 100 complete control)
[19] = Preemergence, 16 g ai/ha, scale 0 to 100
[20] = 8 g ai/ha, scale 0 to 100 (0 no effect, 100 complete control)

Cc1cc(-c2ccc(Br)cc2)nn1-c1c(O)cn[nH]c1=O [Compound 78, 4-[3-(4-bromophenyl)-5-methyl-1H-pyrazol-1-yl]-5-hydroxy-3(2H)-pyridazinone]
Soybean plant response rating (soybean (Glycine max); [12]): 0 | Soybean plant response rating (soybean (Glycine max); [13]): 15 | plant injury at 31 g/ha (soybean (Glycine max); [14]): 20% | plant injury at 62 g/ha (soybean (Glycine max); [15]): 25% | plant injury at 31 g/ha (soybean (Glycine max); [16]): 0% | plant injury at 62 g/ha (soybean (Glycine max); [17]): 0% | Soybean plant response rating (soybean (Glycine max); [18]): 0 | Soybean plant response rating (soybean (Glycine max); [19]): 0 | Wheat plant response rating [1, 12]: 50 | Wheat plant response rating [1, 13]: 85 | Wheat plant response rating [1, 18]: 0 | Wheat plant response rating [1, 19]: 80 | plant injury at 31 g/ha [1, 14]: 98% | plant injury at 62 g/ha [1, 15]: 100% | plant injury at 31 g/ha [1, 16]: 90% | plant injury at 62 g/ha [1, 17]: 95% | Corn plant response rating (corn (Zea mays); [12]): 40 | Corn plant response rating (corn (Zea mays); [18]): 55 | Corn plant response rating (corn (Zea mays); [19]): 85 | Corn plant response rating (crop injury, 0 = no effect, 100 = complete kill) at 16 g/ha (corn (Zea mays); Zea mays, post-emergence, Postemergence, 16 g ai/ha, scale 0 to 100): 100% | Corn plant response rating (crop injury, 0 = no effect, 100 = complete kill) at 31 g/ha (corn (Zea mays); Zea mays, post-emergence, Postemergence, scale 0 to 100): 100% | Corn plant response rating (crop injury, 0 = no effect, 100 = complete kill) at 62 g/ha (corn (Zea mays); Zea mays, post-emergence, Postemergence, scale 0 to 100, 0 no effect): 100% | Corn plant response rating (crop injury, 0 = no effect, 100 = complete kill) at 31 g/ha (corn (Zea mays); Zea mays, pre-emergence, Preemergence, scale 0 to 100 (0 no effect, 100 complete control)): 100% | Corn plant response rating (crop injury, 0 = no effect, 100 = complete kill) at 62 g/ha (corn (Zea mays); Zea mays, pre-emergence, Preemergence, 0 to 100 scale, 0 no effect): 100% | Morningglory plant response rating [2, 12]: 0 | Morningglory plant response rating [2, 13]: 0 | pest or weed control at 31 g/ha [2, 14]: 0% | pest or weed control at 62 g/ha [2, 15]: 0% | pest or weed control at 31 g/ha [2, 16]: 0% | pest or weed control at 62 g/ha [2, 17]: 0% | Morningglory plant response rating [2, 18]: 0 | Morningglory plant response rating [2, 19]: 0 | pest or weed control at 31 g/ha ([3]; Galium aparine, pre-emergence, 31 g ai/ha, scale 0 to 100 (0 no effect, 100 complete control), read-out: Plant response rating, Galium): 0% | pest or weed control at 62 g/ha ([3]; Galium aparine, pre-emergence, 62 g ai/ha, 0 to 100 scale, 0 no effect, 100 complete control, read-out: Plant response rating, Galium): 0% | Galium plant response rating [3, 20]: 0 | Galium plant response rating ([3]; 16 g ai/ha, scale 0 to 100): 0 | Surinam Grass plant response rating [4, 12]: 98 | Surinam Grass plant response rating [4, 13]: 100 | Surinam Grass plant response rating [4, 18]: 95 | Surinam Grass plant response rating [4, 19]: 95 | pest or weed control at 31 g/ha [4, 14]: 100% | pest or weed control at 62 g/ha [4, 15]: 100% | pest or weed control at 31 g/ha [4, 16]: 100% | pest or weed control at 62 g/ha [4, 17]: 100% | Nutsedge, Yellow plant response rating [5, 12]: 0 | Nutsedge, Yellow plant response rating [5, 13]: 0 | pest or weed control at 31 g/ha [5, 14]: 0% | pest or weed control at 62 g/ha [5, 15]: 0% | pest or weed control at 31 g/ha [5, 16]: 0% | pest or weed control at 62 g/ha [5, 17]: 0% | Nutsedge, Yellow plant response rating [5, 18]: 0 | Nutsedge, Yellow plant response rating [5, 19]: 0 | Bromegrass, Downy plant response rating [6, 12]: 55 | pest or weed control at 16 g/ha ([6]; Bromus tectorum, post-emergence, Postemergence, 16 g ai/ha, scale 0 to 100, read-out: Plant response rating, Bromegrass, Downy): 85% | pest or weed control at 31 g/ha ([6]; Bromus tectorum, post-emergence, Postemergence, scale 0 to 100, read-out: Plant response rating, Bromegrass, Downy): 95% | pest or weed control at 62 g/ha ([6]; Bromus tectorum, post-emergence, Postemergence, scale 0 to 100, 0 no effect, read-out: Plant response rating, Bromegrass, Downy): 100% | pest or weed control at 31 g/ha ([6]; Bromus tectorum, pre-emergence, Preemergence, scale 0 to 100 (0 no effect, 100 complete control), read-out: Plant response rating, Bromegrass, Downy): 80% | pest or weed control at 62 g/ha ([6]; Bromus tectorum, pre-emergence, Preemergence, 0 to 100 scale, 0 no effect, read-out: Plant response rating, Bromegrass, Downy): 98% | Bromegrass, Downy plant response rating [6, 18]: 40 | Bromegrass, Downy plant response rating [6, 19]: 60 | Bermudagrass plant response rating [7, 12]: 80 | pest or weed control at 16 g/ha ([7]; Cynodon dactylon, post-emergence, Postemergence, 16 g ai/ha, scale 0 to 100, read-out: Plant response rating, Bermudagrass): 98% | pest or weed control at 31 g/ha ([7]; Cynodon dactylon, post-emergence, Postemergence, scale 0 to 100, read-out: Plant response rating, Bermudagrass): 100% | pest or weed control at 62 g/ha ([7]; Cynodon dactylon, post-emergence, Postemergence, scale 0 to 100, 0 no effect, read-out: Plant response rating, Bermudagrass): 100% | pest or weed control at 31 g/ha ([7]; Cynodon dactylon, pre-emergence, Preemergence, scale 0 to 100 (0 no effect, 100 complete control), read-out: Plant response rating, Bermudagrass): 100% | pest or weed control at 62 g/ha ([7]; Cynodon dactylon, pre-emergence, Preemergence, 0 to 100 scale, 0 no effect, read-out: Plant response rating, Bermudagrass): 100% | Bermudagrass plant response rating [7, 18]: 85 | Bermudagrass plant response rating ([7]; Preemergence, 16 g ai/ha, scale 0 to 100 (0 no effect, 100 complete control)): 100 | Lambsquarters plant response rating [8, 12]: 0 | Lambsquarters plant response rating [8, 13]: 0 | pest or weed control at 31 g/ha [8, 14]: 0% | pest or weed control at 62 g/ha [8, 15]: 0% | pest or weed control at 31 g/ha [8, 16]: 0% | pest or weed control at 62 g/ha [8, 17]: 0% | Lambsquarters plant response rating [8, 18]: 0 | Lambsquarters plant response rating [8, 19]: 0 | Russian Thistle plant response rating [9, 20]: 0 | Plant response rating, Russian Thistle ([9]; 31 g ai/ha, scale 0 to 100 (0 no effect, 100 complete control)): 0 | Plant response rating, Russian Thistle ([9]; 62 g ai/ha, 0 to 100 scale, 0 no effect, 100 complete control): 0 | Russian Thistle plant response rating ([9]; 16 g ai/ha, scale 0 to 100): 0 | Blackgrass plant response rating [10, 12]: 70 | pest or weed control at 16 g/ha ([10]; Alopecurus myosuroides, post-emergence, Postemergence, 16 g ai/ha, scale 0 to 100, read-out: Plant response rating, Blackgrass): 95% | pest or weed control at 31 g/ha ([10]; Alopecurus myosuroides, post-emergence, Postemergence, scale 0 to 100, read-out: Plant response rating, Blackgrass): 100% | pest or weed control at 62 g/ha ([10]; Alopecurus myosuroides, post-emergence, Postemergence, scale 0 to 100, 0 no effect, read-out: Plant response rating, Blackgrass): 100% | pest or weed control at 31 g/ha ([10]; Alopecurus myosuroides, pre-emergence, Preemergence, scale 0 to 100 (0 no effect, 100 complete control), read-out: Plant response rating, Blackgrass): 100% | pest or weed control at 62 g/ha ([10]; Alopecurus myosuroides, pre-emergence, Preemergence, 0 to 100 scale, 0 no effect, read-out: Plant response rating, Blackgrass): 100% | Blackgrass plant response rating [10, 18]: 70 | Blackgrass plant response rating [10, 19]: 90 | Cocklebur plant response rating [11, 12]: 0 | Cocklebur plant response rating [11, 18]: 0 | Cocklebur plant response rating [11, 19]: 0 | pest or weed control at 16 g/ha ([11]; Xanthium strumarium, post-emergence, Postemergence, 16 g ai/ha, scale 0 to 100, read-out: Plant response rating, Cocklebur): 0% | pest or weed control at 31 g/ha ([11]; Xanthium strumarium, post-emergence, Postemergence, scale 0 to 100, read-out: Plant response rating, Cocklebur): 0% | pest or weed control at 62 g/ha ([11]; Xanthium strumarium, post-emergence, Postemergence, scale 0 to 100, 0 no effect, read-out: Plant response rating, Cocklebur): 0% | pest or weed control at 31 g/ha ([11]; Xanthium strumarium, pre-emergence, Preemergence, scale 0 to 100 (0 no effect, 100 complete control), read-out: Plant response rating, Cocklebur): 0% | pest or weed control at 62 g/ha ([11]; Xanthium strumarium, pre-emergence, Preemergence, 0 to 100 scale, 0 no effect, read-out: Plant response rating, Cocklebur): 0%
